The results in this text go back to patent US7235401B2, “Method for determining cell cycle position” (GE Healthcare UK Limited, priority 2001, dated 2007).

Entries after “also recorded” stand apart in the source; their conditions may differ.

In one experiment the test system is U20S cells (ATCC HTB-96). Put plainly: Effect of cell cycle blocking agents on GFP fluorescence from cell cycle phase marker using transiently transfected cells. The class given is cell-based. Particulars: U20S cells transiently transfected with cyclin B1 promoter/D-box/CRS-GFP reporter; 24 hours exposure; confocal scanning imager (FIG. 5). As to the method: U20S cells (ATCC HTB-96) were cultured in wells of a 96 well microtitre plate. Cells were transfected with a cell cycle reporter construct prepared according to Example 1, comprising a cyclin B1 promoter operably linked to sequences encoding the cyclin B1 D-box, the cyclin B1 CRS, and GFP in a pCORON4004 vector (Amersham Biosciences) using Fugene 6 (Roche) as the transfection agent.
Following 24 hours of culture, cells were exposed to the specific cell cycle blockers mimosine (blocks at G1/S phase boundary) or demecolcine (blocks in M phase). Control cells were exposed to culture media alone.
Cells were incubated for a further 24 hours and then analysed for nuclear GFP expression using a confocal scanning imager with automated image analysis (IN Cell Analysis System, Amersham Biosciences).

The subject of a further experiment is U2-OS cells. The experiment can be described thus: Effect of cell cycle inhibiting drugs on GFP expression levels, FACS analysis of stable EGFP reporter cell line. The class given is cell-based. Particulars: 100 ng/ml demecolcine or 1 mM mimosine for 24 hours (FIG. 9). From the text: The green fluorescent protein reporter sequence in the vector described in example 1 was replaced with enhanced GFP (EGFP; Cormack, B. P. et al, Gene, (1996), 173, 33–38; BD Clontech) by standard methods. The EGFP gene is a brighter form of GFP containing the mutations F64L and S65T. In addition, EGFP contains codons that have been altered to optimise expression in mammalian cells. This new construct was transfected into U2-OS cells and a number of colonies were isolated by selection with geneticin followed by sorting of single cells using a fluorescence activated cell sorter.
The cells were prepared for FACS analysis by standard methods. Briefly the cells were fixed and permeabilised using CytoFix/CytoPerm (Becton Dickinson) according to the manufacturers procedures. The cells were then treated with 50 μg/ml RNAse and 0.4% Triton X-100 and counterstained with 100 μg/ml propidium iodide. The degree of propidium iodide staining is proportional to the amount of DNA in the cell and therefore a measure of the cell cycle phase of the cell. As expected, the degree of red propidium iodide staining and the amount of green GFP fluorescence appear to be proportional in the cells.
The cells prepared in Example 5 were grown in 25 cm^2 flasks and treated with either 100 ng/ml demecolcine (Sigma) or 1 mM mimosine (Sigma) for 24 hours. The cells were then fixed, permeabilised and stained with propidium iodide as described in example 5.
In general terms: In flow cytometry, cells or beads pass a laser one at a time.

In the case of `CN[C@H]1CCc2cc(OC)c(OC)c(OC)c2-c2ccc(OC)c(=O)cc21` [demecolcine], the “nuclear GFP fluorescence compared to control cells” value in the experiment on U20S cells (ATCC HTB-96) was “increased fluorescence”. Besides, in the experiment on U2-OS cells, the “cell cycle phase of arrest (FACS, propidium iodide staining)” value (shortened to “cell cycle phase of arrest”) is recorded as “arrested in G2/M” and the “relative green fluorescence intensity (FACS, FL1H)” value was “brighter than the cells that had been arrested at G1/S”. Besides, in the experiment with U2-OS cells (listed as colchicine), the “cell cycle phase of arrest” value was “blocked in G2/M” and the “relative green fluorescence intensity (FACS, FL1H)” value is listed as “relatively high green fluorescence”.

Regarding `NC(Cn1ccc(=O)c(O)c1)C(=O)O` (centres unmarked) [mimosine], the “nuclear GFP fluorescence compared to control cells” value in the experiment on U20S cells (ATCC HTB-96) is recorded as “decreased fluorescence”. In the experiment with U2-OS cells, the “cell cycle phase of arrest” value is “partially blocked in G1/S; also recorded: arrested at the G1/S boundary” and the “relative green fluorescence intensity (FACS, FL1H)” value is “relatively low green fluorescence”.
